Source: patent US8609667B2, “E-type phenyl acrylic ester compounds containing substituted anilino pyrimidine group and uses thereof” (Sinochem Corporation, priority 2009, dated 2013)
Read-outs that look alike come from different tables or passages of the source.

How the values were obtained:
Type in all cases: in vivo
[1] = tested on: adults of Tetranychus cinnabarinus; assay: Acaricidal activity against adults in greenhouse (spray on broadbean shoots, mortality after 72 hrs); conditions: for control against adults of Tetranychus cinnabarinus: spray, 72 hrs; for mortality at 0.625 µg/mL / mortality at 1.25 µg/mL / mortality at 2.5 µg/mL / mortality at 5 µg/mL / mortality at 10 µg/mL / mortality at 40 µg/mL: Tetranychus cinnabarinus, read-out: mortalities of adults of Tetranychus cinnabarinus (%)
Procedure: (§1) The activity determinations of compounds of the present invention against adults, nymphs and eggs of Tetranychus cinnabarinus were carried out in greenhouse by the following procedures:
The activity determination against adults in greenhouse: the compounds were weighed and dissolved in acetone to obtain mother liquid, and then the mother liquid was diluted to required concentration with placed running water containing 0.1% of Tween 80. Broadbean shoots with two true leaves were used to inoculate adults of Tetranychus cinnabarinus which were counted, spraying treatment was performed by portable sprayer (DeVilbiss Atomizer M163), 3 replicates were set for each treatment. After treatment the broadbean shoots were maintained in standard observation room. Scores were conducted and mortalities were calculated after 72 hrs.

[2] = tested on: eggs of Tetranychus cinnabarinus; assay: Activity against eggs in greenhouse (hatching inhibition rate); conditions: for hatching inhibition rate against eggs of Tetranychus cinnabarinus: dose 10 mg/L; for inhibition at 0.625 µg/mL / inhibition at 2.5 µg/mL / inhibition at 10 µg/mL: Tetranychus cinnabarinus, read-out: hatching inhibition rate against eggs (%)
Procedure: as §1
The activity determination against eggs in greenhouse: Broadbean shoots in pot with one true leaf retained were taken, ten healthy female adults of Tetranychus cinnabarinus were inoculated to the leaves, the adults were removed after 24 hrs and the eggs were counted and then sprayed. The treatment of test compounds and spaying method were the same as that of the activity determination in greenhouse against adults. Once eggs of blank control were all hatched after 5 days, unhatched eggs in each treatment were investigated and the hatching inhibition rate were calculated.

[3] = tested on: nymphs of Tetranychus cinnabarinus; assay: Acaricidal activity against nymphs in greenhouse (spray, mortality after 72 hrs)
Procedure: as §1
The activity determination against nymphs in greenhouse: broadbean shoots with two true leaves in pot were taken, ten healthy female adults of Tetranychus cinnabarinus were inoculated to the leaves, the adults were removed after 24 hrs and the eggs were cultivated into nymphs after 7-10 days. The nymphs were counted and then sprayed. 3 replicates were set for each treatment. And then were maintained in standard observation room. Scores were conducted and mortalities were calculated after 72 hrs.

[4] = tested on: citrus red mite; assay: Field trial against citrus red mite (Guilin, China); conditions: 48 mg/L (24% SC)
Procedure: Field Trial Against Citrus Red Mite (Guilin, China)
The trial was carried out in a 2-year-old Shatang orange orchard in Chaotian town lingchuan county guilin city, trifoliate orange trees were selected as stocks, the intervals between two plants was 1.5×2.5 m, the average height was 1.45 m and the crown width was 1.30 m. Two trees were selected in each plot, with random arrangement and 4 replications. Compound 9 (15% SC) was set at two different doses (100 mg/L and 25 mg/L), and spirodiclofen (24% SC) was set at one dose (48 mg/L). Matabi Supergreen 16 Knapsack Sprayer 16 Liter was used to spray evenly with 2 L of spaying volume for each plant. The plants were treated once on 30 Oct. 2009, at that time, adults, nymphs and eggs of citrus red mite all existed, with adults/eggs=1/1.27. During the day the plants were treated, and the weather was good with the average temperature at 23° C. The first three days after treatment were all clear days. The number of mites was investigated before treatment and on the 1st, 3rd, 10th, 15th, 20th and 30th day after treatment respectively. Two trees of each plot were investigated according to the five directions of the tree crown (east, south, west, north and central), 5 leaves in each direction were investigated to calculate the number of living mites, with 50 leaves each plot. The decline rate of mite population and corrected efficacy were calculated according to formulas below: The decline rate of mite population(%)=[(the average number of mite on each leaf before treatment−the average number of mite on each leaf after treatment)/the average number of mite on each leaf before treatment]×100. Corrected efficacy(%)=[(the decline rate of mite population in treated area−the decline rate of mite population in untreated area)/(100−the decline rate of mite population in untreated area)]×100.

CO/C=C(/C(=O)OC)c1ccccc1COc1cc(C(F)(F)F)nc(Nc2ccccc2F)n1 [Compound 2]
control against adults of Tetranychus cinnabarinus ([1]; dose 10 mg/L): 100%
control against adults of Tetranychus cinnabarinus ([1]; dose 40 mg/L): 100%
control against adults of Tetranychus cinnabarinus ([1]; dose 100 mg/L): 100%

CO/C=C(/C(=O)OC)c1ccccc1COc1cc(C(F)(F)F)nc(Nc2cccc(C)c2)n1 [Compound 6]
control against adults of Tetranychus cinnabarinus ([1]; dose 40 mg/L): 100%
control against adults of Tetranychus cinnabarinus ([1]; dose 100 mg/L): 100%

CO/C=C(/C(=O)OC)c1ccccc1COc1cc(C(F)(F)F)nc(Nc2ccc(F)cc2F)n1 [Compound 8]
hatching inhibition rate against eggs (%) ([2]; 0.625 mg/L, Table 8): 25%
hatching inhibition rate against eggs (%) ([2]; 2.5 mg/L, Table 8): 90%
hatching inhibition rate against eggs (%) ([2]; 10 mg/L, Table 8): 100%
hatching inhibition rate against eggs of Tetranychus cinnabarinus [2]: 100%
control against adults of Tetranychus cinnabarinus ([1]; dose 5 mg/L): 100%
control against adults of Tetranychus cinnabarinus ([1]; dose 10 mg/L): 100%
control against adults of Tetranychus cinnabarinus ([1]; dose 40 mg/L): 100%
control against adults of Tetranychus cinnabarinus ([1]; dose 100 mg/L): 100%
control against nymphs of Tetranychus cinnabarinus ([3]; dose 0.63 mg/L): more than 75%
control against nymphs of Tetranychus cinnabarinus ([3]; dose 2.5 mg/L): more than 95%

CO/C=C(/C(=O)OC)c1ccccc1COc1cc(C(F)(F)F)nc(Nc2ccc(Cl)cc2F)n1 [Compound 12]
control against adults of Tetranychus cinnabarinus ([1]; dose 5 mg/L): 100%
control against adults of Tetranychus cinnabarinus ([1]; dose 10 mg/L): 100%
control against adults of Tetranychus cinnabarinus ([1]; dose 40 mg/L): 100%
control against adults of Tetranychus cinnabarinus ([1]; dose 100 mg/L): 100%

CO/C=C(/C(=O)OC)c1ccccc1COc1cc(C(F)(F)F)nc(Nc2ccc(F)c(Cl)c2)n1 [Compound 13]
control against adults of Tetranychus cinnabarinus ([1]; dose 100 mg/L): 100%

CO/C=C(/C(=O)OC)c1ccccc1COc1cc(C(F)(F)F)nc(Nc2ccc(F)c(F)c2F)n1 [Compound 15]
hatching inhibition rate against eggs of Tetranychus cinnabarinus [2]: 100%
control against adults of Tetranychus cinnabarinus ([1]; dose 0.31 mg/L): more than 75%
control against adults of Tetranychus cinnabarinus ([1]; dose 0.625 mg/L): 95%
control against adults of Tetranychus cinnabarinus ([1]; dose 5 mg/L): 100%
control against adults of Tetranychus cinnabarinus ([1]; dose 10 mg/L): 100%
control against adults of Tetranychus cinnabarinus ([1]; dose 40 mg/L): 100%
control against adults of Tetranychus cinnabarinus ([1]; dose 100 mg/L): 100%
control against nymphs of Tetranychus cinnabarinus ([3]; dose 0.63 mg/L): 100%
control against nymphs of Tetranychus cinnabarinus ([3]; dose 2.5 mg/L): 100%

CO/C=C(/C(=O)OC)c1ccccc1COc1cc(C(F)(F)F)nc(Nc2ccc(Cl)c(Cl)c2Cl)n1 [Compound 16]
hatching inhibition rate against eggs of Tetranychus cinnabarinus [2]: 100%
control against adults of Tetranychus cinnabarinus ([1]; dose 5 mg/L): 100%
control against adults of Tetranychus cinnabarinus ([1]; dose 10 mg/L): 100%
control against adults of Tetranychus cinnabarinus ([1]; dose 40 mg/L): 100%
control against adults of Tetranychus cinnabarinus ([1]; dose 100 mg/L): 100%

CO/C=C(/C(=O)OC)c1ccccc1COc1cc(C(F)(F)F)nc(Nc2ccc(Cl)c(C)c2Cl)n1 [Compound 17]
control against adults of Tetranychus cinnabarinus ([1]; dose 5 mg/L): 100%
control against adults of Tetranychus cinnabarinus ([1]; dose 10 mg/L): 100%
control against adults of Tetranychus cinnabarinus ([1]; dose 40 mg/L): 100%
control against adults of Tetranychus cinnabarinus ([1]; dose 100 mg/L): 100%

CO/C=C(/C(=O)OC)c1ccccc1COc1cc(C(F)(F)F)nc(Nc2cc(Cl)ccc2Cl)n1 [Compound 18]
control against adults of Tetranychus cinnabarinus ([1]; dose 40 mg/L): 100%
control against adults of Tetranychus cinnabarinus ([1]; dose 100 mg/L): 100%

CO/C=C(/C(=O)OC)c1ccccc1COc1nc(Nc2ccc(F)cc2F)nc(C(F)(F)F)c1C [Compound 79]
control against adults of Tetranychus cinnabarinus ([1]; dose 10 mg/L): 100%
control against adults of Tetranychus cinnabarinus ([1]; dose 40 mg/L): 100%
control against adults of Tetranychus cinnabarinus ([1]; dose 100 mg/L): 100%

CO/C=C(/C(=O)OC)c1ccccc1COc1nc(Nc2ccc(F)c(F)c2F)nc(C(F)(F)F)c1C [Compound 80]
control against adults of Tetranychus cinnabarinus ([1]; dose 40 mg/L): 100%
control against adults of Tetranychus cinnabarinus ([1]; dose 100 mg/L): 100%

CO/C=C(/C(=O)OC)c1ccccc1COc1nc(Nc2ccccc2Cl)nc(C(F)(F)F)c1C [Compound 82]
control against adults of Tetranychus cinnabarinus ([1]; dose 100 mg/L): 100%

CO/C=C(/C(=O)OC)c1ccccc1COc1nc(Nc2ccc(Cl)cc2)nc(C(F)(F)F)c1C [Compound 83]
control against adults of Tetranychus cinnabarinus ([1]; dose 100 mg/L): 100%

CO/C=C(/C(=O)OC)c1ccccc1COc1nc(Nc2ccccc2)nc(C(F)(F)F)c1C [Compound 84]
control against adults of Tetranychus cinnabarinus ([1]; dose 100 mg/L): 100%

CO/C=C(/C(=O)OC)c1ccccc1COc1nc(Nc2ccccc2)nc(C(F)(F)F)c1Cl [Compound 85]
control against adults of Tetranychus cinnabarinus ([1]; dose 100 mg/L): 100%

CO/C=C(/C(=O)OC)c1ccccc1COc1cc(C(F)(F)F)nc(Nc2ccccc2)n1 [Contrast A, reference compound]
inhibition at 0.625 µg/mL ([2]; 0.625 mg/L, Table 8): 0%
inhibition at 2.5 µg/mL ([2]; 2.5 mg/L, Table 8): 10%
inhibition at 10 µg/mL ([2]; 10 mg/L, Table 8): 100%
mortality at 0.625 µg/mL ([1]; 0.625 mg/L, Table 7): 0%
mortality at 1.25 µg/mL ([1]; 1.25 mg/L, Table 7): 10%
mortality at 2.5 µg/mL ([1]; 2.5 mg/L, Table 7): 30%
mortality at 5 µg/mL ([1]; 5 mg/L, Table 7): 60%
mortality at 10 µg/mL ([1]; 10 mg/L, Table 7): 90%
mortality at 40 µg/mL ([1]; 40 mg/L, Table 7): 100%

CO/C=C(/C(=O)OC)c1ccccc1COc1cc(C(F)(F)F)nc(N(C)C)n1 [Contrast B, reference compound]
mortality at 10 µg/mL ([1]; 10 mg/L, Table 7): 0%
mortality at 40 µg/mL ([1]; 40 mg/L, Table 7): 0%

CO/C=C(/C(=O)OC)c1ccccc1COc1cc(C(F)(F)F)nc(Nc2cccc(Cl)c2Cl)n1 [Contrast C]
inhibition at 0.625 µg/mL ([2]; 0.625 mg/L, Table 8): 0%
inhibition at 2.5 µg/mL ([2]; 2.5 mg/L, Table 8): 10%
inhibition at 10 µg/mL ([2]; 10 mg/L, Table 8): 100%

CO/C=C(/C(=O)OC)c1ccccc1COc1cc(C(F)(F)F)nc(OC(C)C)n1 [Fluacrypyrim, reference compound]
inhibition at 0.625 µg/mL [2]: 0%
inhibition at 2.5 µg/mL [2]: 10%
inhibition at 10 µg/mL [2]: 95%
mortality at 0.625 µg/mL [1]: 0%
mortality at 1.25 µg/mL [1]: 30%
mortality at 2.5 µg/mL [1]: 65%
mortality at 5 µg/mL [1]: 95%
mortality at 10 µg/mL [1]: 100%
mortality at 40 µg/mL [1]: 100%

CCC(C)(C)C(=O)OC1=C(c2ccc(Cl)cc2Cl)C(=O)OC12CCCCC2 [Spirodiclofen, reference compound]
hatching inhibition rate against eggs (%) ([2]; 0.625 mg/L, Table 8): 0%
hatching inhibition rate against eggs (%) ([2]; 2.5 mg/L, Table 8): 70%
hatching inhibition rate against eggs (%) ([2]; 10 mg/L, Table 8): 100%
Corrected efficacy (%) ([4]; the 1st day after treatment): 59%
Corrected efficacy (%) ([4]; the 3rd day after treatment): 72%
Corrected efficacy (%) ([4]; the 10th day after treatment): 75%
Corrected efficacy (%) ([4]; the 15th day after treatment): 76%
Corrected efficacy (%) ([4]; the 20th day after treatment): 83%
Corrected efficacy (%) ([4]; the 30th day after treatment): 82%
